{
  "source": "patent US9156879B1",
  "about": "“Chromatography media” (Merck Sharp & Dohme Corp., priority 2010, dated 2015)",
  "origin": "cited, not measured here",
  "data": [
    {"conditions": "critical micelle concentration of detergent", "values": [
      {"compound": "CCCCCCCCCCCCOCCOCCOCCOCCOCCOCCOCCOCCO", "note": "[C12E8]", "CMC % (w/v)": "0.005 % (w/v)"},
      {"compound": "Deoxycholate", "CMC % (w/v)": "0.21 % (w/v)"},
      {"compound": "CCCCCCCCO[C@@H]1O[C@H](CO)[C@@H](O)[C@H](O)[C@H]1O", "note": "[Octylglucoside]", "CMC % (w/v)": "0.73 % (w/v)"},
      {"compound": "CCCCCCCCCCCCCCCC[N+](C)(C)C.[Br-]", "note": "[C16TAB]", "CMC % (w/v)": "0.04 % (w/v)"},
      {"compound": "Triton X-100", "CMC % (w/v)": "0.021 % (w/v)"},
      {"compound": "CCCCCCCCCCCCOS(=O)(=O)[O-].[Na+]", "note": "[SDS, sodium dodecyl sulfate]", "CMC % (w/v)": "0.23 % (w/v)"},
      {"compound": "LysoPC", "CMC % (w/v)": "0.0004 % (w/v)"},
      {"compound": "CCCCCCCC/C=C\\CCCCCCCC(=O)OCCOCC(OCCO)C1OCC(OCCO)C1OCCO", "note": "(stereo not drawn) [Tween 80]", "CMC % (w/v)": "0.002 % (w/v)"},
      {"compound": "C[C@H](CCC(=O)O)[C@H]1CC[C@H]2[C@@H]3[C@H](O)C[C@@H]4C[C@H](O)CC[C@]4(C)[C@H]3C[C@H](O)[C@]12C", "note": "[Cholate]", "CMC % (w/v)": "0.60 % (w/v)"},
      {"compound": "C[C@H](CCC(=O)NCCC[N+](C)(C)CCCS(=O)(=O)[O-])[C@H]1CC[C@H]2[C@@H]3[C@H](O)C[C@@H]4C[C@H](O)CC[C@]4(C)[C@H]3C[C@H](O)[C@]12C", "note": "[CHAPS, 3[(3-cholamidopropyl)dimethylammonio]-1-propanesulfonate]", "CMC % (w/v)": "0.49 % (w/v)"},
      {"compound": "CCCCCCCCCCCCCC[N+](C)(C)CCCS(=O)(=O)[O-]", "note": "[Zwittergent 3-14]", "CMC % (w/v)": "0.011 % (w/v)"},
      {"compound": "Nonidet P-40", "CMC % (w/v)": "0.017 % (w/v)"}
    ]}
  ]
}
